Source: PubChem BioAssay (NCI)
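Grown in 96-well plates, cells were treated for 48 hours with each compound at five concentrations. Insufficient inhibition: endpoint recorded as highest concentration tested. Here, GI50 denotes the concentration required for 50% inhibition of growth. TGI: total growth inhibition.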

Legend:
Test in all cases: inhibition of tumour cell growth, NCI panel, 48 h
[1] = system: SF-539 CNS
[2] = system: HL-60(TB) leukemia
[3] = system: BT-549 breast
[4] = system: HOP-62 NSCLC
[5] = system: HOP-92 NSCLC
[6] = system: SNB-19 CNS
[7] = system: T-47D breast
[8] = system: CCRF-CEM leukemia
[9] = system: NCI/ADR-RES ovarian
[10] = system: 786-0 renal
[11] = system: U251 CNS
[12] = system: A498 renal
[13] = system: MDA-MB-435
[14] = system: UACC-257 melanoma
[15] = system: ACHN renal
[16] = system: TK-10 renal
[17] = system: A549 NSCLC
[18] = system: KM12 colon
[19] = system: LOX IMVI melanoma
[20] = system: PC-3 prostate
[21] = system: UACC-62 melanoma
[22] = system: COLO 205 colon
[23] = system: DU-145 prostate
[24] = system: SW-620 colon
[25] = system: SF-295 CNS
[26] = system: MCF7 breast
[27] = system: OVCAR-5 ovarian
[28] = system: OVCAR-8 ovarian
[29] = system: MDA-MB-231 breast
[30] = system: HCT-15 colon
[31] = system: NCI-H460 lung
[32] = system: HT29 colon
[33] = system: HS 578T breast
[34] = system: HCT-116 colon
[35] = system: M14 melanoma
[36] = system: NCI-H522 lung
[37] = system: MDA-MB-468 breast
[38] = system: SK-MEL-5 melanoma
[39] = system: RXF 393 renal
[40] = system: MOLT-4 leukemia
[41] = system: SF-268 CNS
[42] = system: NCI-H226 lung
[43] = system: EKVX NSCLC
[44] = system: SK-MEL-2 melanoma
[45] = system: CAKI-1 renal
[46] = system: NCI-H23 lung
[47] = system: SNB-75 CNS
[48] = system: SK-OV-3 ovarian
[49] = system: RPMI-8226 leukemia
[50] = system: HCC-2998 colon
[51] = system: IGROV1 ovarian
[52] = system: SR leukemia
[53] = system: SK-MEL-28 melanoma
[54] = system: OVCAR-3 ovarian
[55] = system: MALME-3M melanoma
[56] = system: K-562 leukemia
[57] = system: SN12C renal
[58] = system: UO-31 renal

For `COc1ccc(NC(=O)Cn2c(/C=C/c3cccc(OC)c3)nc3ccccc3c2=O)cc1`, the GI50 [1] was 1.65 µM, the TGI [1] was 4.15 µM and the GI50 [2] was over 100 µM. The TGI [2] was over 100 µM, the GI50 [3] was 9.84 µM and the TGI [3] was over 59.9 µM. The GI50 [4] was 3.01 µM, the TGI [4] was 28.3 µM and the GI50 [5] was 2.95 µM. For the same compound, the TGI [5] was over 44.7 µM, the GI50 [6] was 8.37 µM and the TGI [6] was over 59.3 µM. For the same compound, the GI50 [7] was 2.41 µM, the TGI [7] was 14.6 µM and the GI50 [8] was over 100 µM. It also gave a TGI [8] of over 100 µM, a GI50 [9] of 4.14 µM and a TGI [9] of 86.9 µM. For the same compound, the GI50 [10] was 1.54 µM, the TGI [10] was 3.38 µM and the GI50 [11] was 0.973 µM. The TGI [11] was 4.2 µM, the GI50 [12] was 1.96 µM and the TGI [12] was 4.68 µM. For the same compound, the GI50 [13] was over 100 µM, the TGI [13] was over 100 µM and the GI50 [14] was over 100 µM. The TGI [14] was over 100 µM, the GI50 [15] was 1.24 µM and the TGI [15] was 3.17 µM. The GI50 [16] was 2.03 µM, the TGI [16] was 4.5 µM and the GI50 [17] was 2.3 µM. For the same compound, the TGI [17] was over 100 µM, the GI50 [18] was over 100 µM and the TGI [18] was over 100 µM. For the same compound, the GI50 [19] was 2.03 µM, the TGI [19] was over 100 µM and the GI50 [20] was over 54 µM. It also gave a TGI [20] of over 100 µM, a GI50 [21] of over 42.1 µM and a TGI [21] of over 89.6 µM. It also gave a GI50 [22] of over 100 µM, a TGI [22] of over 100 µM and a GI50 [23] of over 81.2 µM. It also gave a TGI [23] of over 100 µM, a GI50 [24] of over 100 µM and a TGI [24] of over 100 µM. For the same compound, the GI50 [25] was 2.56 µM, the TGI [25] was over 41.1 µM and the GI50 [26] was 3.56 µM. For the same compound, the TGI [26] was over 100 µM, the GI50 [27] was over 24.9 µM and the TGI [27] was over 100 µM. For the same compound, the GI50 [28] was 4.55 µM, the TGI [28] was over 100 µM and the GI50 [29] was 1.4 µM. It also gave a TGI [29] of 4.42 µM, a GI50 [30] of over 100 µM and a TGI [30] of over 100 µM. For the same compound, the GI50 [31] was 2.51 µM, the TGI [31] was over 100 µM and the GI50 [32] was over 100 µM. The TGI [32] was over 100 µM, the GI50 [33] was 2.46 µM and the TGI [33] was over 100 µM. For the same compound, the GI50 [34] was 1.21 µM, the TGI [34] was over 59 µM and the GI50 [35] was over 29.3 µM. The TGI [35] was over 100 µM, the GI50 [36] was 5.8 µM and the TGI [36] was over 47.5 µM. It also gave a GI50 [37] of 3.4 µM, a TGI [37] of over 91.6 µM and a GI50 [38] of over 100 µM. For the same compound, the TGI [38] was over 100 µM, the GI50 [39] was 1.93 µM and the TGI [39] was 5.63 µM. It also gave a GI50 [40] of over 100 µM, a TGI [40] of over 100 µM and a GI50 [41] of 19.4 µM. For the same compound, the TGI [41] was over 100 µM, the GI50 [42] was 1.98 µM and the TGI [42] was 6.51 µM. It also gave a GI50 [43] of over 63.1 µM, a TGI [43] of over 100 µM and a GI50 [44] of 27.2 µM. It also gave a TGI [44] of 79.6 µM, a GI50 [45] of 2.52 µM and a TGI [45] of over 31.7 µM. The GI50 [46] was 3.69 µM, the TGI [46] was over 44.3 µM and the GI50 [47] was 1.63 µM. The TGI [47] was 4.49 µM, the GI50 [48] was 5.67 µM and the TGI [48] was over 46.7 µM. It also gave a GI50 [49] of over 100 µM, a TGI [49] of over 100 µM and a GI50 [50] of over 100 µM. It also gave a TGI [50] of over 100 µM, a GI50 [51] of over 31 µM and a TGI [51] of over 87.8 µM. It also gave a GI50 [52] of 1.75 µM, a TGI [52] of over 100 µM and a GI50 [53] of over 75 µM. The TGI [53] was over 100 µM, the GI50 [54] was 4.03 µM and the TGI [54] was over 45.9 µM. For the same compound, the GI50 [55] was 3.79 µM, the TGI [55] was over 85.8 µM and the GI50 [56] was over 100 µM. For the same compound, the TGI [56] was over 100 µM, the GI50 [57] was 1.85 µM and the TGI [57] was over 39.1 µM. The GI50 [58] was 1.73 µM and the TGI [58] was 3.77 µM.
